Assay results taken from ChEMBL document CHEMBL1909046, “DrugMatrix in vitro pharmacology data”.

Key:
[1] = DRUGMATRIX: Calcium Channel Type L, Phenylalkylamine radioligand binding (ligand: [3H] (-)-Desmethoxyverapamil (D-888)); type: cell membranes, Rattus norvegicus, Wistar, Brain, Membrane; details: Not Active = under 50% inhibition at 10 µM
[2] = biological target: Mitogen-activated protein kinase 3 (Homo sapiens, UniProt P27361); test: DRUGMATRIX: Protein Serine/Threonine Kinase, ERK1 enzyme inhibition (substrate: Myelin Basic Protein); parameters: species or system Escherichia coli; details: Not Active = under 50% inhibition at 10 µM
[3] = DRUGMATRIX: Sodium/nucleoside co-transporter radioligand binding (ligand: nitrobenzylthioinosine); type: cell membranes, Cavia porcellus, Dunkin-Hartley, Cerebral cortex, Membrane; details: Not Active = under 50% inhibition at 10 µM
[4] = DRUGMATRIX: GABAA, Muscimol, Central radioligand binding (ligand: [3H] Muscimol); type: cell membranes, Rattus norvegicus, Wistar, Brain, Membrane; details: Not Active = under 50% inhibition at 10 µM
[5] = biological target: Kappa-type opioid receptor (Homo sapiens, UniProt P41145); test: DRUGMATRIX: Opiate kappa (OP2, KOP) radioligand binding (ligand: [3H] Diprenorphine); type: cell membranes, HEK293, Membrane; details: hek293; Not Active = under 50% inhibition at 10 µM
[6] = DRUGMATRIX: Phorbol Ester radioligand binding (ligand: [3H] PDBu); type: cell membranes, Mus musculus, ICR, Brain, Membrane; details: Not Active = under 50% inhibition at 10 µM
[7] = biological target: T1, Nitric oxide synthase, inducible (Mus musculus, UniProt P29477); parameters: species or system Escherichia coli;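 also: inhibition of iNOS enzyme activity measured with L-arginine as substrate; in other assays of this panel Not Active means under 50% inhibition at 10 µM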
T1 sequence (P29477 whole entry): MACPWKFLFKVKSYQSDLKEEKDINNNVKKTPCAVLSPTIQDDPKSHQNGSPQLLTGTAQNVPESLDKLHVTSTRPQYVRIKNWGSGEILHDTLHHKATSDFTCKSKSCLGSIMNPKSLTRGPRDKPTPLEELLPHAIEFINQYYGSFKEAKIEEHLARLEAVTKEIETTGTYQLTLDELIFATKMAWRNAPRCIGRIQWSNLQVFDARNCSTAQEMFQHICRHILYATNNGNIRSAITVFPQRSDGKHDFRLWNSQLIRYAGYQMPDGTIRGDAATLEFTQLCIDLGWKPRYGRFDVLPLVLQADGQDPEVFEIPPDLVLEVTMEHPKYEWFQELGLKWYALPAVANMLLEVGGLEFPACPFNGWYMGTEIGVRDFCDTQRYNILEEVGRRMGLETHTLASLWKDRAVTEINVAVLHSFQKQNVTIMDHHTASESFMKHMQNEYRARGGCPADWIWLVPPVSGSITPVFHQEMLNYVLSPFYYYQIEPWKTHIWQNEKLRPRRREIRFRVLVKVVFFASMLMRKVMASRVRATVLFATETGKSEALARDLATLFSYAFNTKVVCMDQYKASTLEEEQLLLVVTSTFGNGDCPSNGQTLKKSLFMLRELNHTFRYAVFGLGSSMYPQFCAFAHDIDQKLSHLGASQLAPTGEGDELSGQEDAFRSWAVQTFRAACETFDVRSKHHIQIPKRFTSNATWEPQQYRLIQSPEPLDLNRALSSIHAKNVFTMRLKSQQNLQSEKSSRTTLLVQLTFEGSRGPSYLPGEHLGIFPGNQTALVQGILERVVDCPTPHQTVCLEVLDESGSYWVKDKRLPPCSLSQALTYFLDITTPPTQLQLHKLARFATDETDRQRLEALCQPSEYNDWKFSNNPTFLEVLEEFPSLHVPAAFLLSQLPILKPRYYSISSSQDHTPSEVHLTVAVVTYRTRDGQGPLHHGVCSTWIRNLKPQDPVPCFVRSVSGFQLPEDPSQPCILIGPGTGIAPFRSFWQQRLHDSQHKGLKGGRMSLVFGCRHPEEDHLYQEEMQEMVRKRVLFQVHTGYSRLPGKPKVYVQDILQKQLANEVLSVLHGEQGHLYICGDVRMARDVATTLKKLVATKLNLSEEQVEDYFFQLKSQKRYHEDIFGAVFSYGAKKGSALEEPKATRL

[8] = biological target: T2, Receptor-type tyrosine-protein phosphatase C (Homo sapiens, UniProt P08575); parameters: species or system Escherichia coli;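 also: inhibition of CD45 enzyme activity measured using DiFMUP as substrate; in other assays of this panel Not Active means under 50% inhibition at 10 µM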
T2 sequence (P08575 whole entry): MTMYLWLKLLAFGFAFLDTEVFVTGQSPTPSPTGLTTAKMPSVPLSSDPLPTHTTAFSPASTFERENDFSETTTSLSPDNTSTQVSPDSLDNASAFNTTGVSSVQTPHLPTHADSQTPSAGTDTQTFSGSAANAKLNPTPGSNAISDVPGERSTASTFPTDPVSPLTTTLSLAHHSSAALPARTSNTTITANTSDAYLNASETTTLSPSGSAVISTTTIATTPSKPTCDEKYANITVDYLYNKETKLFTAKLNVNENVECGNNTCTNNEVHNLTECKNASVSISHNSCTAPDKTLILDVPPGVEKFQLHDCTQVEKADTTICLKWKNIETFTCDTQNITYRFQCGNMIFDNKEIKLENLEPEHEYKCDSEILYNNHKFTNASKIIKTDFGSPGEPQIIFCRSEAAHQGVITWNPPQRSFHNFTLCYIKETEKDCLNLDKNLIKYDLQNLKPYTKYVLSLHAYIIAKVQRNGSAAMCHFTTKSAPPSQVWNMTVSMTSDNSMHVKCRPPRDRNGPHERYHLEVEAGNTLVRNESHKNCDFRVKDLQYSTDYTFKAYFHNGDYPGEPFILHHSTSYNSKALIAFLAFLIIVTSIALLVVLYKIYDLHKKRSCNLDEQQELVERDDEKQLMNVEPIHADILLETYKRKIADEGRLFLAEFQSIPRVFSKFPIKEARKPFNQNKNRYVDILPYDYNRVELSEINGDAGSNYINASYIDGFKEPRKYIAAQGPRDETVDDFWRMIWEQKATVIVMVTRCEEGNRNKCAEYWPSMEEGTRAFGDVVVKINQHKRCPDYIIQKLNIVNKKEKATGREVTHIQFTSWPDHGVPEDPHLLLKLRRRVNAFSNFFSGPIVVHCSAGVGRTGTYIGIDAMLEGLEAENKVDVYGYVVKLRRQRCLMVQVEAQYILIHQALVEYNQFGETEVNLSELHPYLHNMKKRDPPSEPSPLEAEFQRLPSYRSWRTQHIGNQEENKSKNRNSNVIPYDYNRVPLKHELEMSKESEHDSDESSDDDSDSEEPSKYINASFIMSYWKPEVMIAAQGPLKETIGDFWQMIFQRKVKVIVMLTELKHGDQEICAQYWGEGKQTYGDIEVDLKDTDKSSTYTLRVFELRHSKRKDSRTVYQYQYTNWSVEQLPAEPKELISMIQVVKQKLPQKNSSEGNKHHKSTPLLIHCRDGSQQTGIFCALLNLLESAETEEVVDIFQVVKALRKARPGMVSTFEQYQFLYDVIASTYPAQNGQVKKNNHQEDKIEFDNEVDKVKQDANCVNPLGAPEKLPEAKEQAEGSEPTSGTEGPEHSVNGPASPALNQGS

Sequence of Kappa-type opioid receptor (P41145 whole entry): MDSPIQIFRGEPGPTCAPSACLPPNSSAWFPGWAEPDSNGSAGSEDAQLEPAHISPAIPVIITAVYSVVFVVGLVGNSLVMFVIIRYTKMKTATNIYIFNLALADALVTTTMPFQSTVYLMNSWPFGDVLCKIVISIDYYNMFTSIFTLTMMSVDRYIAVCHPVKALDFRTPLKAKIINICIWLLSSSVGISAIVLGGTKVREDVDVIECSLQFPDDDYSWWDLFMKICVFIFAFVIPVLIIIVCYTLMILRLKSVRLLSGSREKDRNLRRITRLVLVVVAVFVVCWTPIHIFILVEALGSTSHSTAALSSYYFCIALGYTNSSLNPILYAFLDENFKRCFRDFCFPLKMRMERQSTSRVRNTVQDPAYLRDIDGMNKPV
Sequence of Mitogen-activated protein kinase 3 (P27361 whole entry): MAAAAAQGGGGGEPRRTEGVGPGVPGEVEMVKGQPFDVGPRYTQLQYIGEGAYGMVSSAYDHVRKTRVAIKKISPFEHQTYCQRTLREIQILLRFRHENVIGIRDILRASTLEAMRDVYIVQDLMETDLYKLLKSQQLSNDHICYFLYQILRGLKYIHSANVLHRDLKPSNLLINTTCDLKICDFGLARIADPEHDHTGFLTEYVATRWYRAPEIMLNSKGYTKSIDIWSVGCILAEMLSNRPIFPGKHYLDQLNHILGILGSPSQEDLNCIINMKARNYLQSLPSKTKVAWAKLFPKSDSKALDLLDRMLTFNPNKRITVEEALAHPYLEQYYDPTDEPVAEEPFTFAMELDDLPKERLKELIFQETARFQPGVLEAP

CCOC(=O)C(C)(C)Oc1ccc(Cl)cc1 [CLOFIBRATE]
Not Active: IC50 [1] | Ki [1] | IC50 [2] | IC50 [3] | Ki [3] | IC50 [4] | Ki [4] | IC50 [5] | IC50 [6] | Ki [6] | IC50 [7] | IC50 [8]

CC(=O)OCC(=O)[C@@]1(O)CC[C@H]2[C@@H]3CCC4=CC(=O)CC[C@]4(C)[C@H]3C(=O)C[C@@]21C [CORTISONE ACETATE]
Not Active: IC50 [1] | Ki [1] | IC50 [2] | IC50 [3] | Ki [3] | IC50 [4] | Ki [4] | IC50 [5] | IC50 [6] | Ki [6] | IC50 [7] | IC50 [8]

O=c1ccc2ccccc2o1 [COUMARIN]
Not Active: IC50 [1] | Ki [1] | IC50 [2] | IC50 [3] | Ki [3] | IC50 [4] | Ki [4] | IC50 [5] | IC50 [6] | Ki [6] | IC50 [7] | IC50 [8]

C/C=C/C[C@@H](C)[C@@H](O)[C@H]1C(=O)N[C@@H](CC)C(=O)N(C)CC(=O)N(C)[C@@H](CC(C)C)C(=O)N[C@@H](C(C)C)C(=O)N(C)[C@@H](CC(C)C)C(=O)N[C@@H](C)C(=O)N[C@H](C)C(=O)N(C)[C@@H](CC(C)C)C(=O)N(C)[C@@H](CC(C)C)C(=O)N(C)[C@@H](C(C)C)C(=O)N1C [CYCLOSPORINE]
Not Active: IC50 [1] | Ki [1] | IC50 [2] | IC50 [3] | Ki [3] | IC50 [4] | Ki [4] | IC50 [5] | IC50 [6] | Ki [6] | IC50 [7] | IC50 [8]

CN(C)/N=N/c1[nH]cnc1C(N)=O [DACARBAZINE]
Not Active: IC50 [1] | Ki [1] | IC50 [2] | IC50 [3] | Ki [3] | IC50 [4] | Ki [4] | IC50 [5] | IC50 [6] | Ki [6] | IC50 [7] | IC50 [8]

COc1ccc2c(c1)[C@]13CCCC[C@@H]1[C@H](C2)N(C)CC3 [DEXTROMETHORPHAN]
Not Active: IC50 [1] | Ki [1] | IC50 [2] | IC50 [3] | Ki [3] | IC50 [4] | Ki [4] | IC50 [5] | IC50 [6] | Ki [6] | IC50 [7] | IC50 [8]

CC(=O)Nc1c(I)c(NC(C)=O)c(I)c(C(=O)O)c1I [DIATRIZOIC ACID]
Not Active: IC50 [1] | Ki [1] | IC50 [2] | IC50 [3] | Ki [3] | IC50 [4] | Ki [4] | IC50 [5] | IC50 [6] | Ki [6] | IC50 [7] | IC50 [8]

O=C(O)Cc1ccccc1Nc1c(Cl)cccc1Cl [DICLOFENAC]
Not Active: IC50 [1] | Ki [1] | IC50 [2] | IC50 [3] | Ki [3] | IC50 [4] | Ki [4] | IC50 [5] | IC50 [6] | Ki [6] | IC50 [7] | IC50 [8]

C[C@H]1O[C@@H](O[C@H]2[C@@H](O)C[C@H](O[C@H]3[C@@H](O)C[C@H](O[C@H]4CC[C@@]5(C)[C@H](CC[C@@H]6[C@@H]5CC[C@]5(C)[C@@H](C7=CC(=O)OC7)CC[C@]65O)C4)O[C@@H]3C)O[C@@H]2C)C[C@H](O)[C@@H]1O [DIGITOXIN]
Not Active: IC50 [1] | Ki [1] | IC50 [2] | IC50 [3] | Ki [3] | IC50 [4] | Ki [4] | IC50 [5] | IC50 [6] | Ki [6] | IC50 [7] | IC50 [8]

CCN1CC(CCN2CCOCC2)C(c2ccccc2)(c2ccccc2)C1=O (stereo not given) [DOXAPRAM]
Not Active: IC50 [1] | Ki [1] | IC50 [2] | IC50 [3] | Ki [3] | IC50 [4] | Ki [4] | IC50 [5] | IC50 [6] | Ki [6] | IC50 [7] | IC50 [8]
